Data taken from patent publication US20260256870A1, “SKIN COMPOSITION” (Eaderm Co., Ltd., priority 2019, published 2026).
Entries after “also recorded” stand apart in the source; their conditions may differ.

Legend:
[1] = tested on: full thickness wounds in the skin of rodent tails; experiment: Full thickness wound healing in tail skin; type: in vivo, mice; details: day 0, day 14, day 21 (FIG. 12)
Description: To test the above hypothesis, the present inventors performed a full-layer wound healing experiment using the tail skin of aged wild-type mice. […] Forced expression of hCOL17A1 by basal layer keratinocytes in mice also promoted wound healing (FIG. 12). […] To confirm the beneficial effects in vivo, these drugs were administered to full thickness wounds in the skin of rodent tails.

[2] = tested on: SDS-induced skin roughness, medial forearm; experiment: Human skin roughness induced by 10% SDS (Example 18); type: in vivo
Description: Two subjects were administered with substances that promote the self-renewal ability of epidermal stem cells (apocynin, ebselen, and celecoxib) using a test of skin roughness induced by 10% sodium lauryl sulfate (SDS) solution (a test that serves as a standard for chemical-induced skin damage in humans), and the effect of the skin roughness-preventing or -ameliorating agent in improving skin roughness was evaluated. Six 1.5-cm square areas were placed on the subject's medial forearm, and each was subjected to the treatments below. • SDS non-treated (70% ethanol treatment) group • SDS treatment+solvent (50% ethanol/PBS) application group. • SDS treatment+apocynin (200 μM) solution application group • SDS treatment+ebselen (0.25%) solution application group. • SDS treatment+celecoxib (2%) solution application group A cotton ball permeated with 500 μL of 10% SDS solution (dissolved in 70% ethanol) was applied to the test area for 30 minutes each on day 0 and day 1. Apocynin was applied on day 0 before SDS treatment, applied after treatment, and then applied to the test area once daily until day 9. The TEWL at each test area was measured before and after SDS treatment, and daily from day 1 to day 7. For each area, the TEWL value before SDS treatment was subtracted from the TEWL value on the measurement day, and this value was defined as “ΔTEWL”, and this value was used for evaluation. The test area was photographed with a digital camera and with PRIMOS-CR (Canfield Scientific, Inc., USA, Integral Corporation), a high-resolution three-dimensional image analyzer. For the PRIMOS images, the Primos OMC3_22 software was used to measure the degree of skin roughness in terms of “Ry (maximum height)” and “Rz (ten-point average roughness)”, which are parameters representing surface roughness in the height direction. For each site, the value obtained by subtracting the Rz or Ry value of the SDS non-treated control from the Rz or Ry value on the measurement day was defined as “ΔRz” and “ΔRy”, and these values were used for evaluation.

[3] = tested on: human epidermal keratinocytes; experiment: Colony formation assay using human epidermal keratinocytes; type: cell-based
Source text: To test whether COL17A1-mediated SCD maintains clonal proliferation of epidermal stem cell clones, the present inventors used a colony formation assay, which is an in vitro assay said to be the gold standard for assessing the self-renewal ability of epidermal stem cells, including cells in the tail epidermis.

UVB-irradiated back skin = experiment: Barrier function after UVB irradiation (Example 12); type: in vivo, Hairless mice HOS: HR-1
Description: Hairless mice HOS: HR-1 females (7 weeks old) were acclimatized to the experimental environment and then grouped into the 6 groups below, so that the body weight values were nearly uniform. • No ultraviolet irradiation group (n=2) • Ultraviolet (UVB) irradiation+solvent application group (n=4). • Ultraviolet (UVB) irradiation+200 nM apocynin application group (n=4). • Ultraviolet (UVB) irradiation+200 μM apocynin application group (n=4). • Ultraviolet (UVB) irradiation+2 μM Y-27632 application group (n=4). • Ultraviolet (UVB) irradiation+20 μM Y-27632 application group (n=4) In the above solution application group, aqueous solutions of each preparation were applied to hairless mice on their back once a day for five days, starting from the day before ultraviolet irradiation. UVB irradiation was carried out using a Yayoi ultraviolet irradiation system (Y-UV-Lab-K-D5 lamp type) at an intensity of 150 mJ/cm^2 once a day. The stratum corneum water content and TEWL of the irradiated area were measured for each group of mice on the fourth day after the start of ultraviolet irradiation. The measurements were performed using Corneometer CM825 and Tewameter TN300 (Courage+Khazaka, Integral Corporation, Germany) at specific sites on the back of the mice.

COL17A1 = COL17A1 expression in human epidermal keratinocytes by high content imaging (HCS); type: cell-based
Description: The present inventors further searched for substances that induce or maintain the expression of COL17A1. Human epidermal keratinocytes were seeded in 384-well plates, cultured for 48 hours after addition of reagents, immunostained with an anti-COL17A1 antibody and a fluorescently labeled secondary antibody, and then the fluorescence intensity per cell was detected using a high content imaging system (HCS: High Content Screening). In addition to cell counting with DAPI, the expression level of COL17A1 was quantified.

[4] = apocynin 200 μM, ebselen 0.25%, celecoxib 2%

For `COc1cc(C(C)=O)ccc1O` [Apocynin], which “wound repair (unrepaired wound area)” value [1] is on record?
The value was “significantly accelerated; also recorded: significantly promote the wound repair process”.

What about the “skin roughness (analysis of skin texture from high-resolution photographs)” value [2, 4] of the same compound?
Its value is “significantly reduced”.

What about the ΔRy [2, 4] of the same compound?
Its ΔRy is “significantly decreased”.

And the ΔRz [2, 4]?
The ΔRz was “significantly decreased”.

And the ΔTEWL [2, 4]?
The ΔTEWL was “significantly decreased”.

What about the “pigmentation / healing of the affected area” value ([2]; day 16, apocynin 200 μM (FIG. 31)) of the same compound?
Its value is “healed; also recorded: almost no pigmentation”.

And the “Colony area (control ratio)” value ([3]; Table 1)?
Its value is “⊚ (one double circle (⊚) indicates maintenance of 1.0-1.2-fold)”.

And the “Colony number (control ratio)” value ([3]; Table 1)?
Its value is “⊚ (one double circle (⊚) indicates maintenance of 1.0-1.2-fold)”.

What about the “area of colonies per well” value ([3]; compared to the control (FIG. 16)) of the same compound?
Its value is “significantly increased”.

And the number of colonies ([3]; compared to the control, n=3 wells (FIG. 13, FIG. 16))?
The number of colonies was “significantly increased”.

What about the “average size of the top five colonies” value ([3]; compared to the control, n=3 wells (FIG. 14)) of the same compound?
The value was “significantly increased”.

What about the colony size ([3]; human epidermal keratinocytes) of the same compound?
The colony size was “significantly increased”.

And the “number of colonies with a diameter greater than 2 mm” value ([3]; n=3 wells (FIG. 13 right))?
The value was “significantly increased”.

And the “TEWL after ultraviolet irradiation” value (UVB-irradiated back skin; 200 µM administration group, UVB, fourth day (FIG. 21))?
Its value is “significantly lower”.

And the “water content of the stratum corneum after ultraviolet irradiation” value (UVB-irradiated back skin; 200 μM applied, UVB 150 mJ/cm^2, fourth day (FIG. 21))?
Its value is “significantly higher”.

What about the “COL17A1 expression level (control ratio)” value (COL17A1; Table 1, human epidermal keratinocytes, 48 hours after addition of reagents, fluorescence intensity per cell) of the same compound?
Its value is “⊚ (one double circle (⊚) represents a 1.2-fold or greater increase)”.

And the “COL17A1 expression / amount of COL17A1 in cultured keratinocytes compared to the control” value (COL17A1; in vitro, HCS (FIG. 15))?
The value was “significantly increased; also recorded: maintain or induce the COL17A1 expression; also recorded: induce the COL17A1 expression”.
